Data as given in US20240158418A1 (C4 Therapeutics, Inc., priority 2021, published 2024).
Entries after “also recorded” stand apart in the source; their conditions may differ.

Test system: intracranial NCI-H1975-luciferase expressing NSCLC tumors
Assay: NCI-H1975-luc intracranial tumor model (intracranial injection into forebrain)
Format: in vivo, female BALB/c nude mice
Conditions: 100 mg/kg/day PO BID
Protocol: Compound 1 efficacy in a NCI-H1975-luciferase expressing intracranial tumor model established by injecting tumor cells intracranially into the mouse forebrain was evaluated at […]: 100 mg/kg/day. Compound 1 was administered BID (twice a day) orally (PO). Eight mice were used per group.
2×10^5 luciferase-expressing NCI-H1975-luc tumor cells suspended in 2 μL RPMI-1640 media were injected into the right forebrain of female BALB/c nude mice. Tumor growth was monitored using imaging analysis. Mice were injected intraperitoneally with 15 mg/mL of D-luciferin and anesthetized with 1-2% isoflurane inhalation. 10 minutes post luciferin injection, mice were imaged using IVIS Lumina III (Perkin Elmer) and total bioluminescence signal (BLI, photons/s) was measured in a region of interest (ROI). BLI from ROI were quantified and used as an indicator of tumor burden. 7 days post tumor cell inoculation mice were randomized into groups of 8 with a mean BLI of 27×10^6 photons/s. All agents were administered to mice bearing NCI-H1975-luc brain tumors on day 8. […] Body weight and MTV were measured on a 2× weekly schedule. Statistical analysis was calculated using the Mann-Whitney U test. Data are expressed as bioluminescent signal (photons/s).

O=C1CC[C@H](Nc2ccc(N3CCC(O)(CC(=O)N4CC5(C4)CN(c4ccc(-c6cc(F)c7c(c6)C(=O)N(C(C(=O)Nc6nccs6)c6ncn8c6CCC8)C7)cc4)C5)CC3)c(F)c2)C(=O)N1 (stereo partly drawn) [Compound 1, 2-(6,7-dihydro-5H-pyrrolo[1,2-c]imidazol-1-yl)-2-[6-[4-[2-[2-[1-[4-[[(3S)-2,6-dioxo-3-piperidyl]amino]-2-fluoro-phenyl]-4-hydroxy-4-piperidyl]acetyl]-2,6-diazaspiro[3.3]heptan-6-yl]phenyl]-4-fluoro-1-oxo-isoindolin-2-yl]-N-thiazol-2-yl-acetamide]
Statistical Significance Compared to Vehicle (NCI-H1975-luc cells intracranial): 0.001
efficacy on NCI-H1975-luc BLI (tumor burden) (intracranial forebrain model, 100 mg/kg/day): reduced tumor volume; also recorded: tumor regression
